System: PD patients
Assay: fMRI of PD patients performing paced finger tapping (PFT), on and off dopamine supplementation
Assay type: in vivo
Description: In this fMRI study, ten PD patients and thirteen healthy age-matched controls were imaged while performing the PFT. PD patients underwent two imaging sessions, one on and the other off dopamine supplementation. For this study whole-brain fMRI was performed on a 1.5 Tesla General Electric Signa scanner equipped with a 3-axis local gradient head coil and an elliptical end-capped quadrature radiofrequency coil. Foam padding was used to limit head motion within the coil. Echo-planar images were collected using a single-shot, blipped gradient-echo echo-planar pulse sequence (TE=40 ms, TR=3.0 seconds, 90° flip angle, FOV=240 mm, matrix=64×64). Twenty-two contiguous sagittal 6 mm thick slices were collected to provide coverage of the entire brain (voxel size 3.75×3.75×6 mm). Overall, a total of 136 images were collected per run. Prior to functional imaging, high-resolution, three-dimensional, spoiled gradient-recalled at steady-state (GRASS) anatomic images were collected (TE=5 ms, TR=24 ms, 40° flip angle, NEX=1, slice thickness=1.2 mm, FOV=24 cm, matrix=256×128) for anatomic localization and co-registration.

Which “effect on the S task (fMRI activation)” value (PD patients ON vs OFF medication, S condition of PFT task) does the source give for `N[C@@H](Cc1ccc(O)c(O)c1)C(=O)O` [Levodopa] here?
Its value is “relatively little effect”.

What about the “spatial extent of activation within the SMC, SMA, and putamen” value (PD patients, fMRI during PFT, on vs off dopamine replacement) of the same compound?
Its value is “increase”.

And the brain activation patterns (PD patients, fMRI during PFT, relative to healthy controls)?
Its brain activation patterns is “partially “normalized””.

And the PFT performance (PD patients, on vs off dopamine supplementation)?
Its PFT performance is “lack of improvement”.

— patent publication US20050107682A1, “fMRI system for use in assessing the efficacy of therapies in treating CNS disorders” (priority 2003, published 2005)
